Measurements as given in ChEMBL document CHEMBL1122294, “Synthesis and biological activity of zoapatanol analogues” (J Med Chem, 1983).
Activity calls are given as the source filed them. The calls are words filed in the database; no cut-off is given here.

Key:
Type in all cases: functional, organism-based
Cavia porcellus [1] = assay: Postcoital antifertility activity was determined in guinea pigs after injected for 3 days subcutaneously (12-14 postmating days); IA- Inactive
Cavia porcellus [2] = assay: Luteolytic activity was determined in guinea pigs administered intraperitoneally as a single dose on day 22 postmating days; IA- Inactive
Cavia porcellus [3] = assay: Postcoital antifertility was determined in guinea pigs after injected for 3 days subcutaneously (22-24 postmating days); IA- Inactive
Cavia porcellus [4] = assay: Postcoital antifertility was determined in guinea pigs administered intraperitoneally as a single dose on day 22 postmating days; IA- Inactive
Cavia porcellus [5] = assay: Luteolytic activity was determined in guinea pigs after injected for 3 days subcutaneously (22-24 postmating days); IA- Inactive
Cavia porcellus [6] = assay: Luteolytic activity was determined in guinea pigs after injected for 3 days subcutaneously (12-14 postmating days); IA- Inactive
Cavia porcellus [7] = assay: Pregnancy was determined in guinea pigs after sc administration of 50 or 75 mg per guinea pig on 22-24 postmating days (n=5); NA- No apparent effect
Cavia porcellus [8] = assay: Pregnancy was determined in guinea pigs after sc administration of 40 or 50 mg per guinea pig on 12-14 postmating days (n=5); NA- No apparent effect
Cavia porcellus [9] = assay: Effect in guinea pigs at a dose of 80 mg/kg of body weight; A- Partially active; design: dose 80 mg/kg
Cavia porcellus [10] = assay: Effect in guinea pigs at a dose of 60 mg/kg of body weight; A- Partially active; design: dose 60 mg/kg
Cavia porcellus [11] = assay: Effect on the resorption of implantation sites in guinea pigs at 100 mg/kg administered intraperitoneally; E- Fully effective; design: dose 100 mg/kg
Cavia porcellus [12] = species on record: Cavia porcellus; assay: Pregnancy was determined in guinea pigs after a single dose of 24 mg per guinea pig (n=1 or 2); NE- No effect
Cavia porcellus [13] = species on record: Cavia porcellus; assay: Pregnancy was determined in guinea pigs after a single dose of 40 mg per guinea pig (n=1 or 2); NE- No effect

| Structure (SMILES) | Activity (Cavia porcellus [1]) | Activity (Cavia porcellus [2]) | Activity (Cavia porcellus [3]) | Activity (Cavia porcellus [4]) | Activity (Cavia porcellus [5]) | Activity (Cavia porcellus [6]) | Activity (Cavia porcellus [7]) | Activity (Cavia porcellus [8]) | Activity (Cavia porcellus [9]) | Activity (Cavia porcellus [10]) | Activity (Cavia porcellus [11]) | Activity (Cavia porcellus [12]) | Activity (Cavia porcellus [13]) |
| --- | --- | --- | --- | --- | --- | --- | --- | --- | --- | --- | --- | --- | --- |
| CC(C)=CCC(=O)C(C)CCCC1(C)COC(CC(=O)O)CO1 (centres undefined) | inactive | inactive | inactive | inactive | inactive | inactive | – | – | – | – | – | – | – |
| COC(=O)C(C)CCC[C@]1(C)COC(CO)CO1 (some centres undefined) | inactive | inactive | inactive | inactive | inactive | inactive | inactive | inactive | – | – | – | – | – |
| CC(C)=CCC(=O)C(C)CCCC1(C)OC/C(=C/CO)CCC1O (centres undefined) | – | – | – | – | – | – | – | – | Weak activity | Weak activity | Fully effective | – | – |
| CC(C)=CCC(=O)C(C)CCCC1(C)COC(CO)CO1 (centres undefined) | inactive | inactive | inactive | inactive | inactive | inactive | – | – | – | – | – | – | – |
| CC(C)/C=C/C(=O)C(C)CCCC1(C)COC(CC(=O)O)CO1 (centres undefined) | inactive | inactive | inactive | inactive | inactive | inactive | – | – | – | – | – | inactive | inactive |
| COC(=O)C(C)CCC[C@@]1(C)COC(CO)CO1 (some centres undefined) | inactive | inactive | inactive | inactive | inactive | inactive | inactive | inactive | – | – | – | – | – |
